Laboratory results taken from US11060715B2, “Ex vivo proliferation of epithelial cells” (PROPAGENIX INC., priority 2015, dated 2021).

What was measured:
[1] = test system: prostate epithelial cells; assay: Growth (population doublings) of prostate epithelial cells in culture; type: cell-based, human
Method: (§1) Epithelial cells (prostate epithelial cells and bronchial epithelial cells) were plated at 3,000-10,000 viable cells/cm^2 in tissue culture vessels, using culture medium as indicated in Examples 2 to 5 and FIGS. 1 to 17, and incubated at 37° C. with 5% CO2. The medium was changed every 2 or 3 days. Cells were sub-cultured using standard trypsinization method when they were about 70-90% confluent. Total cell number was determined using the Countess II Automated Cell Counter (Life Technologies, AMQAX1000) following manufacturer's instructions.
(§2) A formula used for the calculation of population doublings (PD) is presented in Equation A: n=3.32*(log Y−log I)+X Equation A where n=the final PD number at end of a given subculture, Y=the cell yield at the time of harvesting, I=the cell number used as inoculum to begin that subculture, and X=the doubling level of the inoculum used to initiate the subculture being quantitated.
(§3) Prostate and bronchial epithelial cells were grown in KSFM in the presence of Rho kinase inhibitor (i.e., Rho-associated protein kinase inhibitor) Y-27632.
To examine the effects of additional in vitro and/or ex vivo growth conditions, prostate epithelial cells were grown in KSFM or PrEGM in the presence of media alone, ALK5 inhibitor A83-01, Rho kinase inhibitor (i.e., Rho-associated protein kinase inhibitor) Y-27632, or both (with or without collagen).

keratinocytes = assay: Expansion of keratinocytes in KSFM supplemented with combinations of components; type: cell-based, human; details: increasing doses, KSFM with EGF, isoproterenol, A 83-01 and rHA
Method: In another experiment, keratinocytes were cultured in KSFM supplemented with various combinations of components.
In another experiment, keratinocytes were cultured in the presence of increasing doses of ROCK inhibitor (Y-27632) or Myosin II ATPase inhibitor (blebbistatin), in KSFM supplemented with EGF (0.5 ng/mL), isoproterenol (3 μM), A 83-01 (1 μM), and recombinant human serum albumin (expressed in rice; 100 μg/mL).
In another experiment, keratinocytes were cultured in the presence of increasing doses (between 10 nM to 2 μM) of retinoic acid receptors (RAR) antagonist BMS-453 or retinoic acid receptors (RAR) antagonist BMS-195614, in KSFM supplemented with EGF (0.5 ng/mL), isoproterenol (3 μM), A 83-01 (1 μM), and recombinant human serum albumin (expressed in rice; 100 μg/mL).

[2] = test system: human telomerase reverse transcriptase (hTERT) gene; assay: hTERT expression by quantitative real-time PCR in prostate epithelial cells; type: cell-based; details: KSFM
Method: (§4) Total RNA was prepared using TRIzol® Plus RNA Purification Kit (Life Technologies, 12183-555) and PureLink® RNA Mini Kit (Life Technologies, 12183018A), following the manufacturer's instructions. One hundred nanogram total RNA was used for the determination of human telomerase reverse transcriptase (hTERT) expression using the TaqMan® RNA-to-CT™ 1-Step Kit (Life Technologies, 4392938), following the protocol provided by the supplier. hTERT primers and Taqman® probe used were as follows: forward primer, 5′-[…]-3′ (SEQ ID NO:7), reverse primer, 5′-[…]-3′ (SEQ ID NO:8) and Taqman® probe, 5′-[…]-3′ (SEQ ID NO:9).
(§5) In this example, hTERT expression in epithelial cells was assessed in the presence of an ALK5 inhibitor, a Rho kinase inhibitor (i.e., a Rho-associated protein kinase inhibitor), or both. Expression of hTERT gene was examined by quantitative real-time PCR in bronchial epithelial cells and prostate epithelial cells. The cells were treated with an ALK5 inhibitor, A83-01, or a Rho kinase inhibitor (i.e., a Rho-associated protein kinase inhibitor), Y-27632, or both inhibitors, at different passages in KSFM.
As shown in FIG. 6A and FIG. 6B, prostate epithelial cells at early passage (p2) expressed low level of hTERT, which quickly diminished at passage 3 and became non-detectible by passage 5.

[3] = test system: bronchial epithelial cells; assay: Plating efficiency of bronchial epithelial cells in KSFM; type: cell-based, human; details: regular tissue culture surface
Method: as §1
(§6) In this example, epithelial cell plating efficiency, i.e., number of cells that efficiently attach to the cell culture surfaces, continue to divide and grow into colonies, was examined under various conditions.
(§7) However, those few cells that did attach continued to proliferate.
Many bronchial epithelial cells attached to regular tissue culture surface in the presence of both A83-01 and Y-27632 at day 2 after plating.

[4] = test system: human telomerase reverse transcriptase (hTERT) gene; assay: hTERT expression by quantitative real-time PCR in bronchial epithelial cells; type: cell-based; details: KSFM
Method: as §4, §5

[5] = test system: prostate epithelial cells; assay: Plating efficiency of prostate epithelial cells in KSFM; type: cell-based, human; details: regular tissue culture surface
Method: as §1, §6, §7
Many prostate epithelial cells attached to regular tissue culture surface in the presence of both A83-01 and Y-27632 at day 2 after plating.

[6] = test system: bronchial epithelial cells; assay: Growth (population doublings) of bronchial epithelial cells in culture; type: cell-based, human
Method: as §1, §2, §3
Similar to the experiment above, bronchial epithelial cells were grown in KSFM in the presence of media alone, ALK5 inhibitor A83-01, Rho kinase inhibitor (i.e., Rho-associated protein kinase inhibitor) Y-27632, or both (with or without collagen).

[7] = test system: late passage prostate epithelial cells; assay: Proliferation of late passage prostate epithelial cells in KSFM plus compounds, 5 days; type: cell-based, human
Method: Stocks of certain chemicals used in the study were prepared by dissolving in DMSO to 10 mM. The chemical stocks were added to culture media to desired final concentrations, as described in Examples 2 to 5 and shown in FIGS. 1 to 17, from the time when cell culture was initiated.
In a control experiment with no added compound, there was minimum increase of cell numbers after 5 days.
In control experiment with no inhibitor added to KSFM, there was minimum increase of cell numbers after 5 days. […] As described above, these include Rho kinase inhibitors (i.e., Rho-associated protein kinase inhibitors) such as Y-27632, SR 3677, GSK 429286 and Thiazovivin; PAK1 inhibitor IPA-3; and myosin II inhibitor (i.e., non-muscle myosin II (NM II) inhibitor) Blebbistatin.

[8] = test system: human foreskin keratinocytes (HFK) and human bronchial epithelial cells (HBEC); assay: Cell growth with increasing isoproterenol in KSFM plus A83-01 and Y-27632, six days; type: cell-based; details: in KSFM plus 1 μM A83-01 and 5 μM Y-27632, six days
Method: In a further investigation, epithelial cell growth was assessed in the presence of a beta-adrenergic agonist (i.e., a beta-adrenergic receptor agonist). Human foreskin keratinocytes (HFK) and human bronchial epithelial cells (HBEC) were cultured in KSFM plus 1 μM A83-01 and 5 μM Y-27632, supplemented with increasing concentrations of isoproterenol (a beta-adrenergic receptor agonist that increases cytosolic cAMP levels). Cell numbers were counted after six days to calculate cell growth relative to control.

[9] = KSFM, compound used alone, late passage

For `C[C@@H](N)[C@H]1CC[C@H](C(=O)Nc2ccncc2)CC1.Cl.Cl` [Y-27632, (R)-(+)-trans-4-(1-Aminoethyl)-N-(4-Pyridyl)cyclohexanecarboxamide dihydrochloride], the “population doubling (PD) reached before cells entered senescence” value ([1]; KSFM) was greater than 20, the proliferation [1, 9] was “did not promote the proliferation” and the total population doublings ([1]; added to KSFM) was “slightly increased the total population doublings”. The cell growth rate (keratinocytes) was “No significant increase of cell growth rate”, the hTERT expression ([2]; early passage (p2)) was “induced” and the hTERT expression ([2]; late passage (p5)) was “non-detectible”. The “plating efficiency in the presence of A83-01” value [3] was “ameliorated the low plating efficiency”, the hTERT expression ([4]; early passage (p3)) was “slightly induced” and the hTERT expression ([4]; late passage (p6)) was “non-detectible”. For the same compound, the “plating efficiency in the presence of A83-01” value [5] was “ameliorated the low plating efficiency”, the proliferation [6, 9] was “did not promote the proliferation” and the total population doublings ([6]; added to KSFM) was “slightly increased the total population doublings”. The “cell proliferation after 5 days” value ([7]; KSFM plus compound alone (FIG. 17)) was “slight increase of cell proliferation”, the “total cell number after 5 days” value ([7]; KSFM plus individual compound alone, 5 μM, 1 μM and 0.2 μM (FIG. 16)) was “slight increase of total cell numbers” and the “cell proliferation after 5 days” value ([7]; used together with A83-01 in KSFM, 5 μM, 1 μM and 0.2 μM (FIG. 17)) was “synergistically increased”.
With `CC(C)NCC(O)c1ccc(O)c(O)c1` (stereo not shown) [isoproterenol] the “cell growth relative to control” value [8] was “further increased epithelial cells growth”.
